Measurements: patent US10202361B2, “Pyridazinones as herbicides” (E I DU PONT DE NEMOURS AND COMPANY, priority 2014, dated 2019)
Where two headings read alike, the source gives them in different places.

How the values were obtained:
Format in all cases: in vivo
[1] = system: crabgrass, Large (large crabgrass, Digitaria sanguinalis); experiment: Test A pre-/postemergence greenhouse herbicide test; settings: Digitaria sanguinalis, 240 h, 0 to 100 scale (0 no effect, 100 complete control), approx. 10 d, read-out: Plant response rating, Crabgrass, Large; for pest or weed control at 125 g/ha: 125 g ai/ha; for pest or weed control at 500 g/ha: 500 g ai/ha
Outline: (§1)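 Greenhouse pot test, loam/sand soil. Pre: directed soil spray at seeding; post: foliar spray, 1–2 leaf, 2–10 cm height, same day. Read-out ~10 d: visual % control, 0–100 scale vs untreated.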

[2] = system: wheat (Triticum aestivum); experiment: as above; settings: Triticum aestivum, 240 h, 0 to 100 scale (0 no effect, 100 complete control), approx. 10 d, read-out: Plant response rating, Wheat; for plant injury at 125 g/ha: 125 g ai/ha; for plant injury at 500 g/ha: 500 g ai/ha
Outline: as §1

[3] = system: velvetleaf (Abutilon theophrasti); experiment: as above; settings: Abutilon theophrasti, 240 h, 0 to 100 scale (0 no effect, 100 complete control), approx. 10 d, read-out: Plant response rating, Velvetleaf; for pest or weed control at 125 g/ha: 125 g ai/ha; for pest or weed control at 500 g/ha: 500 g ai/ha
Outline: as §1

[4] = system: foxtail, giant (giant foxtail, Setaria faberii); experiment: as above; settings: Setaria faberi, 240 h, 0 to 100 scale (0 no effect, 100 complete control), approx. 10 d, read-out: Plant response rating, Foxtail, Giant; for pest or weed control at 125 g/ha: 125 g ai/ha; for pest or weed control at 500 g/ha: 500 g ai/ha
Outline: as §1

[5] = system: morningglory (Ipomoea spp.); experiment: as above; settings: Ipomoea, 240 h, 0 to 100 scale (0 no effect, 100 complete control), approx. 10 d, read-out: Plant response rating, Morningglory; for pest or weed control at 125 g/ha: 125 g ai/ha; for pest or weed control at 500 g/ha: 500 g ai/ha
Outline: as §1

rice (Oryza sativa) = experiment: Test B flooded paddy test; settings: Oryza sativa, 312 h, Flood, scale of 0 to 100, 0 is no effect, 100 is complete control, 13 to 15 d, read-out: Plant response rating, Rice; for plant injury at 250 g/ha: 250 g ai/ha
Outline: (§2)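 Seedlings at 2 leaves are flooded to 3 cm, compound is added to the water, and that level is kept for the whole test. Plants stay in the greenhouse 13 to 15 d before visual comparison with controls, scored 0–100 where 100 means complete control.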

[6] = system: ducksalad (Heteranthera limosa); experiment: Test B flooded paddy test; settings: Heteranthera limosa, 312 h, Flood, scale of 0 to 100, 0 is no effect, 100 is complete control, 13 to 15 d, read-out: Plant response rating, Ducksalad; for pest or weed control at 250 g/ha: 250 g ai/ha
Outline: as §2

[7] = system: barnyardgrass (Echinochloa crus-galli); experiment: Test B flooded paddy test; settings: Echinochloa crus-galli, 312 h, Flood, scale of 0 to 100, 0 is no effect, 100 is complete control, 13 to 15 d, read-out: Plant response rating, Barnyardgrass; for pest or weed control at 250 g/ha: 250 g ai/ha
Outline: as §2

[8] = system: sedge, umbrella (small-flower umbrella sedge, Cyperus difformis); experiment: Test B flooded paddy test; settings: Cyperus difformis, 312 h, Flood, scale of 0 to 100, 0 is no effect, 100 is complete control, 13 to 15 d, read-out: Plant response rating, Sedge, Umbrella; for pest or weed control at 250 g/ha: 250 g ai/ha
Outline: as §2

Row | SMILES | pest or weed control at 125 g/ha ([1]; post-emergence, Postemergence) [%] | pest or weed control at 500 g/ha ([1]; post-emergence, Postemergence) [%] | pest or weed control at 125 g/ha ([1]; pre-emergence, Preemergence) [%] | pest or weed control at 500 g/ha ([1]; pre-emergence, Preemergence) [%] | plant injury at 125 g/ha ([2]; post-emergence, Postemergence) [%] | plant injury at 500 g/ha ([2]; post-emergence, Postemergence) [%] | plant injury at 125 g/ha ([2]; pre-emergence, Preemergence) [%] | plant injury at 500 g/ha ([2]; pre-emergence, Preemergence) [%] | pest or weed control at 125 g/ha ([3]; post-emergence, Postemergence) [%] | pest or weed control at 500 g/ha ([3]; post-emergence, Postemergence) [%] | pest or weed control at 125 g/ha ([3]; pre-emergence, Preemergence) [%] | pest or weed control at 500 g/ha ([3]; pre-emergence, Preemergence) [%] | pest or weed control at 125 g/ha ([4]; post-emergence, Postemergence) [%] | pest or weed control at 500 g/ha ([4]; post-emergence, Postemergence) [%] | pest or weed control at 125 g/ha ([4]; pre-emergence, Preemergence) [%] | pest or weed control at 500 g/ha ([4]; pre-emergence, Preemergence) [%] | pest or weed control at 125 g/ha ([5]; post-emergence, Postemergence) [%] | pest or weed control at 500 g/ha ([5]; post-emergence, Postemergence) [%] | pest or weed control at 125 g/ha ([5]; pre-emergence, Preemergence) [%] | pest or weed control at 500 g/ha ([5]; pre-emergence, Preemergence) [%] | other results
1 | Cc1cc(=O)n(-c2ccc(F)cc2)nc1Cn1ccc(C(F)(F)F)n1 [Compound 3, 2-(4-fluorophenyl)-5-methyl-6-[[3-(trifluoromethyl)-1H-pyrazol-1-yl]methyl]-3(2H)-pyridazinone] | 10 | 30 | 30 | 90 | 0 | 0 | 0 | 0 | 30 | 80 | 0 | 20 | 10 | 30 | 0 | 40 | 60 | 70 | 0 | 0 | plant injury at 250 g/ha (rice (Oryza sativa)): 0%; pest or weed control at 250 g/ha [6]: 0%; pest or weed control at 250 g/ha [7]: 0%; pest or weed control at 250 g/ha [8]: 0%
2 | Cc1cc(=O)n(-c2ccc(C(F)(F)F)cc2)nc1Oc1ccnc(C(F)(F)F)c1 [Compound 5, 5-methyl-2-[4-(trifluoromethyl)phenyl]-6-[[2-(trifluoromethyl)-4-pyridinyl]oxy]-3(2H)-pyridazinone] | 50 | 80 | 100 | 100 | 30 | 40 | 0 | 10 | 70 | 100 | 20 | 100 | 60 | 90 | 90 | 100 | 60 | 100 | 60 | 80 | plant injury at 125 g/ha (rice (Oryza sativa); 125 g ai/ha): 55%; pest or weed control at 125 g/ha ([6]; 125 g ai/ha): 75%; pest or weed control at 125 g/ha ([7]; 125 g ai/ha): 55%; pest or weed control at 125 g/ha ([8]; 125 g ai/ha): 80%
3 | CCOc1cc(=O)n(-c2ccc(F)cc2)nc1C(=O)c1ccnc(C(F)(F)F)c1 [Compound 22, 5-ethoxy-2-(4-fluorophenyl)-6-[[2-(trifluoromethyl)-4-pyridinyl]carbonyl]-3(2H)-pyridazinone] | 60 | 100 | 100 | 100 | 60 | 90 | 10 | 40 | 20 | 50 | 40 | 100 | 60 | 100 | 90 | 100 | 40 | 100 | 30 | 100 | plant injury at 250 g/ha (rice (Oryza sativa)): 10%; pest or weed control at 250 g/ha [6]: 70%; pest or weed control at 250 g/ha [7]: 10%; pest or weed control at 250 g/ha [8]: 80%
4 | CCOc1cc(=O)n(-c2ccc(F)cc2)nc1C(O)c1ccnc(C(F)(F)F)c1 (stereo not drawn) [Compound 23, 5-ethoxy-2-(4-fluorophenyl)-6-[hydroxy[2-(trifluoromethyl)-4-pyridinyl]methyl]-3(2H)-pyridazinone] | 60 | 100 | 100 | 100 | 80 | 90 | 0 | 90 | 20 | 70 | 80 | 100 | 50 | 90 | 100 | 100 | 20 | 60 | 100 | 100 | plant injury at 250 g/ha (rice (Oryza sativa)): 10%; pest or weed control at 250 g/ha [6]: 80%; pest or weed control at 250 g/ha [7]: 10%; pest or weed control at 250 g/ha [8]: 70%
